Test results from PubChem BioAssay (NCI).
“And” between values parts separate entries of the source, which are not always exact repeats. Equal values may be shown once.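 Following 48 hours of exposure in 96-well plates, responses at five concentrations were used to interpolate endpoints linearly. Abbreviation: GI50, concentration required for 50% inhibition of growth. TGI is the concentration that stops growth completely.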

Tests used:
Experiment in all cases: DTP human tumour cell line panel, 48 h
[1] = tested on: OVCAR-4 ovarian
[2] = tested on: M14 melanoma
[3] = tested on: NCI-H226 lung
[4] = tested on: CCRF-CEM leukemia
[5] = tested on: SK-MEL-5 melanoma
[6] = tested on: SF-539 CNS
[7] = tested on: MOLT-4 leukemia
[8] = tested on: SNB-75 CNS
[9] = tested on: NCI-H522 lung
[10] = tested on: SW-620 colon
[11] = tested on: OVCAR-3 ovarian

SMILES | TGI [1] | TGI [2] | GI50 [3] | TGI [3] | TGI [4] | GI50 [5] | TGI [5] | TGI [6] | GI50 [7] | TGI [7] | TGI [8] | TGI [9] | TGI [10] | TGI [11] | GI50 [2] | GI50 [4] | GI50 [10] | GI50 [1] | GI50 [9]
COC(=O)[C@@H]1CC(C(C[N+](=O)[O-])c2ccc(O[Si](C)(C)C(C)(C)C)cc2)C(=O)N1C(=O)OC(C)(C)C (stereo not given in full) | > 100 µM | > 100 µM | 12.6 µM and 35 µM | > 100 µM | > 100 µM | > 100 µM and 39.9 µM | > 100 µM | > 100 µM | 14.4 µM and 31.4 µM | > 100 µM | > 100 µM | > 100 µM | > 100 µM | > 100 µM | – | – | – | – | –
O=C1C(Cl)=C(Nc2ccc(S(=O)(=O)O)cc2)C(=O)c2ccccc21 | > 100 µM | 47.1 µM | – | 61.9 µM | > 100 µM | – | 28 µM | 57.9 µM | – | > 100 µM | > 100 µM | 33.5 µM | 51.1 µM | 43.4 µM | – | – | – | – | –
O=C(Nc1nc2ccc([N+](=O)[O-])cc2s1)C(=O)C(C(=O)c1ccccc1F)C1OC(=O)c2ccccc21 (stereo not given) | > 100 µM | > 100 µM | – | – | 48.7 µM | – | > 100 µM | 48.3 µM | – | > 100 µM | 74.5 µM | 51.8 µM | > 100 µM | – | – | – | – | – | –
Cc1cc(S(=O)(=O)Nc2nc3ccccc3nc2-c2cccc([N+](=O)[O-])c2)c(S)cc1Cl | 66.8 µM | 35.1 µM | – | 44.5 µM | 75.7 µM | – | 28.4 µM | 38.1 µM | – | 73.5 µM | – | 38.9 µM | – | 30.6 µM | – | – | – | – | –
COc1c(Br)cc2c(c1OC)C(Br)CCC(Br)(Br)C2=O (stereo not given) | 6.87 µM | 0.539 µM | – | 5.84 µM | – | – | 6.26 µM | 5.25 µM | – | 5.73 µM | 22.2 µM | 2 µM | 1.58 µM | 2.91 µM | – | – | – | – | –
CO/N=C(/C)c1ccc(NC(=O)CSc2nnc(-c3ccncc3)n2-c2ccccc2)cc1 | – | > 100 µM | – | – | > 100 µM | – | – | – | > 100 µM | > 100 µM | – | – | > 100 µM | – | > 100 µM | > 100 µM | > 100 µM | – | –
CN(C)CCCN1c2ccccc2Sc2ccc3ccccc3c21 | 17.8 µM | 3.3 µM | – | 19 µM | 8.2 µM | – | 8.21 µM | 30.9 µM | – | 10.1 µM | – | 22.8 µM | 22.6 µM | 21.7 µM | – | – | – | – | –
O=C1OC2(CC1C1(O)C3CC4CC(C3)CC1C4)C1CC3CC(C1)CC2C3 (stereo not given) | 76.6 µM | > 100 µM | – | > 100 µM | > 100 µM | – | > 100 µM | > 100 µM | – | > 100 µM | > 100 µM | – | > 100 µM | > 100 µM | – | – | – | – | –
C=CC1(NC(=O)c2ccccc2)CCC(C(C)(C)C)CC1 (stereo not given) | > 100 µM | – | – | > 71.6 µM | 72.1 µM | – | 43.9 µM | > 100 µM | – | 30.3 µM | > 81.5 µM | 94 µM | > 84.4 µM | 86.7 µM | – | – | – | – | –
O=C(c1ccccc1)c1ccc2nc(-c3c(Cl)c(Cl)c(Cl)c(Cl)c3C(=O)N/N=C/c3ccc(Cl)cc3)[nH]c2c1 | > 100 µM | > 100 µM | – | > 100 µM | 71.3 µM | – | 45.7 µM | > 100 µM | – | > 100 µM | > 100 µM | > 100 µM | > 100 µM | 51.5 µM | – | – | – | – | –
CC(=O)Oc1cc2c(cc1OC(C)=O)OCC(c1ccccc1)C2 (stereo not given) | 55.4 µM | – | – | 48.5 µM | 15.1 µM | – | 39 µM | 48.7 µM | – | 26.1 µM | 26.6 µM | 7.47 µM | 18.5 µM | 58.9 µM | – | – | – | – | –
CCN(CC)c1ccc2cc(C(=O)Nc3ccc4[nH]c(C(=O)N5C[C@@H](CCl)c6c5cc(OC(=O)Nc5ccccc5)c5[nH]cc(C)c65)cc4c3)oc2c1 | > 1000 µM | – | – | – | > 1000 µM | – | > 1000 µM | 796 µM | 294 µM | > 1000 µM | > 1000 µM | > 1000 µM | > 1000 µM | > 1000 µM | – | 178 µM | 207 µM | 428 µM | 438 µM
OCCNCCN1CCN(CCCN2c3ccccc3Sc3ccc(C(F)(F)F)cc32)CC1 | 48.8 µM | 30.2 µM | – | 49.9 µM | > 100 µM | – | > 100 µM | 34.5 µM | – | > 100 µM | – | 36.6 µM | 35.3 µM | 40.3 µM | – | – | – | – | –
O=c1ssc(=Nc2ccccc2)n1-c1ccccc1 | 33.2 µM | 48.3 µM | – | 46.5 µM | > 100 µM | – | > 100 µM | > 100 µM | – | > 100 µM | > 100 µM | – | 51.8 µM | 53.1 µM | – | – | – | – | –
N#C[C@H](OC1OC(COC2OC(CO)C(O)C(O)C2O)C(O)C(O)C1O)c1ccccc1 (stereo not given in full) | > 250 µM | – | – | > 250 µM | > 250 µM | – | > 250 µM | > 250 µM | > 141 µM | > 141 µM | > 250 µM | > 250 µM | > 250 µM | > 250 µM | – | – | – | – | –
CCCc1c(-c2ccccc2)[nH]c2ccccc2c1=O | > 100 µM | > 100 µM | – | > 100 µM | > 100 µM | – | – | > 100 µM | – | > 100 µM | – | – | > 100 µM | > 100 µM | – | – | – | – | –
O=C(CCl)NNC1=Nc2ccc(Cl)cc2SC1 | 5.63 µM | – | – | 6.16 µM | 3.08 µM | – | 6.54 µM | 3.77 µM | – | 2.86 µM | 5.14 µM | 1.85 µM | 4.22 µM | 3.28 µM | – | – | – | – | –
